Results reported in publication PMC6751662, “Pharmacological and functional similarities of the human neuropeptide Y system in C. elegans challenges phylogenetic views on the FLP/NPR system” (Cell Communication and Signaling : CCS, 2019).
Ends that are not written are not given here.

How the values were obtained:
[1] = target: T1, NPR-3 (Caenorhabditis elegans, UniProt P90745); assay: IP accumulation assay, chimeric GαΔ6qi4myr, NPR-3; format: cell-based, C. elegans; settings: 1 h, HBSS + 20 mM LiCl, HEK293 receptor + GαΔ6qi4myr, HTRF IP-One
T1 construct: expressed in transfected cells; host or cells: HEK293
T1 sequence (P90745 1-376): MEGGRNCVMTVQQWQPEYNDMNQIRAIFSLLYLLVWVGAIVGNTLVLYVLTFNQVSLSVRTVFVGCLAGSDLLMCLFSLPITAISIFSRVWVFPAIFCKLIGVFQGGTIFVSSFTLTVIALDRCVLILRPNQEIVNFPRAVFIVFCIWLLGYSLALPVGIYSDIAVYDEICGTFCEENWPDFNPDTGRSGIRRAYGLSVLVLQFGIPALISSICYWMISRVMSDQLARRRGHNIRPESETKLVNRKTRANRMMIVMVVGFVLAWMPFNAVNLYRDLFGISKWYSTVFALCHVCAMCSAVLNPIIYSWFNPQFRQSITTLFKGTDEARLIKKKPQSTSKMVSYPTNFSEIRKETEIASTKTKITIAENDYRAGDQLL
Method: For measuring IP accumulation, HEK293 cells grown to 70–80% confluency in 6-well plates were transiently co-transfected using Metafectene Pro (2.5 μl/μg DNA; Biontex) with plasmids containing receptor and/or mock (empty pcDNA3.1) (for endogenous Gq-coupling) using 4 μg total DNA in a ratio of 3:1 following the manufacturer’s instructions. For testing Gα16- and GαΔ6qi4myr-coupling, plasmids encoding the corresponding Gα protein were co-transfected instead of mock. Gα16 is naturally promiscuous and stimulates the phospholipase C (PLC) pathway leading to IP production, while the exchange of the C-terminal four amino acids of Gαq for the corresponding residues of Gαi1 in the chimeric GαΔ6qi4myr confers the ability to couple to Gi/o protein-preferring receptors but still stimulate PLC, thus specifically redirecting downstream cellular signaling. 16 h post transfection, the cells were seeded into white 384-well plates at a density of 20,000 cells/well. Media was removed 24 h later and the cells were incubated with the indicated concentration of peptides for 1 h in HBSS + 20 mM LiCl. IP accumulation was measured with the HTRF-based IP-One Gq kit (Cisbio) on a microplate reader (Tecan Spark).
(§1) For in vitro activation, data is presented as mean ± SEM of at least three independent experiments conducted in technical triplicate. […] For the C. elegans NPRs, we considered the strongest response elicited by any of the peptides downstream of a particular receptor as the receptor’s maximal signal. This may or may not be the biological maximum that can be reached by the ‘true’ endogenous agonist. For the human receptors, the response to the established endogenous agonist reflected the maximal signal.

[2] = target: T2, Y2R (Homo sapiens, UniProt P49146); assay: cAMP reporter gene assay, Gi/o, Y2R; format: cell-based; settings: for Gi (Gs) [x-fold of forskolin], Y2R, mean: inhibition of cAMP production induced by 1 µM forskolin (set to 1.00), transiently transfected HEK293 cells, mean of at least three independent experiments; for cAMP assay (Gi/o), Y2R: 4 h, lower = higher Gi/o activity, transfected HEK293, CRE-luciferase, mean of >=3 independent experiments
T2 construct: expressed in transfected cells; host or cells: HEK293, transient
T2 sequence (P49146 1-381): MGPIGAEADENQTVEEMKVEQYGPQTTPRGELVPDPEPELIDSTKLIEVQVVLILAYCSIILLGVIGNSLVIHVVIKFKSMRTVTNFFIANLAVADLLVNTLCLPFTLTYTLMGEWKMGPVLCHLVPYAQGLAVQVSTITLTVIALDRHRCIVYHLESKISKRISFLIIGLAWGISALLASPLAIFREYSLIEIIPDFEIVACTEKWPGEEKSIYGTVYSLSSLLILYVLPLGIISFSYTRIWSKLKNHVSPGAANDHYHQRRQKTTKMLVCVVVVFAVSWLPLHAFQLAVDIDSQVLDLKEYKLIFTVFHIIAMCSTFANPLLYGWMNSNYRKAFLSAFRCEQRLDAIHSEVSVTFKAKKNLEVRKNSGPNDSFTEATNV
Method: (§2) Activation of Gs and Gi/o was assessed with a cAMP reporter gene assay. HEK293 cells grown to 70–80% confluency in 6-well plates were transiently co-transfected with vectors encoding the receptor and the cAMP reporter gene plasmid pGL4.29 [luc2P/CRE/Hygro] (Promega; 4 μg total, 1:1 ratio) using Metafectene Pro (3 μl/μg DNA; Biontex) following the manufacturer’s instructions. 16 h post transfection, the cells were seeded into white 384-well plates at a density of 20,000 cells/well. On the next day, the medium was removed and the cells were stimulated with 20 μl of peptide solution (or forskolin as positive control) in serum-free DMEM for 4 h. For measuring Gi/o activity, the peptide solutions additionally contained 1 μM forskolin to elevate cellular cAMP levels. After incubation, the luciferase substrate OneGlo in lysis buffer (Promega) was added and the luminescence was measured in a microplate reader Tecan Spark (Tecan). Data were analyzed with GraphPad Prism 5.03 and are shown as fold of basal or fold of forskolin in case of Gαi/o activity.
as §1

[3] = target: T3, NPFF1R (Homo sapiens, UniProt Q9GZQ6); assay: cAMP reporter gene assay, Gi/o, NPFF1R; format: cell-based; settings: for Gi (Gs) [x-fold of forskolin], NPFF1R, mean: inhibition of cAMP production induced by 1 µM forskolin (set to 1.00), transiently transfected HEK293 cells, mean of at least three independent experiments; for cAMP assay (Gi/o), NPFF1R: 4 h, lower = higher Gi/o activity, transfected HEK293, CRE-luciferase, mean of >=3 independent experiments
T3 construct: expressed in transfected cells; host or cells: HEK293, transient
T3 sequence (Q9GZQ6 whole entry): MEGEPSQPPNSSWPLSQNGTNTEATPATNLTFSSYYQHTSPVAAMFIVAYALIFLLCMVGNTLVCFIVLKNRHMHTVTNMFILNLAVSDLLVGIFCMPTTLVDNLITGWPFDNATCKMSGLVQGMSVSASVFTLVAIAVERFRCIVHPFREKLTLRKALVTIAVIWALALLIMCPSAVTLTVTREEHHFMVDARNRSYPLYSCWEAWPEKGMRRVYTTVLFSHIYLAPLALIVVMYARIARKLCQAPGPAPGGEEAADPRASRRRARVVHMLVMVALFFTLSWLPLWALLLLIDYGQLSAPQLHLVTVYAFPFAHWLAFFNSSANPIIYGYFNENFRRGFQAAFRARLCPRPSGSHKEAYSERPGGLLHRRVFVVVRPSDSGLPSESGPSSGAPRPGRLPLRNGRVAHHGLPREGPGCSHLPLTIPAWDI
Method: as §2, §1

[4] = Solubility of crude peptides in RP-HPLC purification solvents; format: physicochemical; settings: for solubility of crude peptide at basic pH: 10 mM (NH4)2CO3, pH 8.5, used for purification; for solubility of crude peptide: H2O + 0.1% TFA / acetonitrile + 0.08% TFA (RP-HPLC purification conditions)
Method: C-terminally amidated peptides were synthesized in 15 μmol scale by solid-phase peptide synthesis following the Fmoc/tert-butyl strategy (reviewed in [18]) on Rink amide resin using an automated Syro II peptide synthesizer (MultiSynTech). Automated coupling reactions were performed as double couplings using 8 eq Nα-protected amino acid, activated in situ with equimolar amounts of Oxyma and […] in dimethylformamide (DMF) for 30 min. Automated Fmoc deprotection was carried out with 40% (v/v) piperidine in DMF for 3 min and 20% (v/v) piperidine in DMF for 10 min. Reactive side chains of amino acids were protected by tert-butyl (tBu for Tyr, Ser, Asp, Glu, Thr), trityl (Trt for Asn, Gln, His), 2,2,4,6,7-pentamethyldihydrobenzofuran-5-sulfonyl (Pbf for Arg) and tert-butyloxycarbonyl (Boc for Lys). Peptides were cleaved off the resin using trifluoroacetic acid (TFA)/H2O/triisopropylsilane (90/5/5, v/v/v) for 2.5 h at room temperature and precipitated in ice cold diethyl ether. All peptides were purified to > 95% purity by RP-HPLC (Shimadzu) using a Phenomenex Jupiter 10 μm Proteo 90 Å (C12) column. For most peptides, linear gradients of H2O + 0.1% trifluoroacetic acid (TFA) (eluent A) and acetonitrile (ACN) + 0.08% TFA (eluent B) were applied at a flow rate of 10 ml/minute. […] FLP-27, FLP-33, and FLP-34 were solubilized by ultrasonication at 50 °C for 10 min and subsequently purified under standard solvent conditions used pre-heated HPLC systems. […] Peptide identity was verified by matrix-assisted laser desorption/time of flight (MALDI-ToF; Ultraflex III MALDI-ToF/ToF, Bruker Daltonics) mass spectrometry, and peptide purity was evaluated with analytical RP-HPLC.

[5] = 0.1 µM peptide (Table S8), mean of >=3 independent experiments
[6] = 10 µM peptide, mean of >=3 independent experiments (Tables S5 and S8)
[7] = 0.1 µM peptide + 1 µM forskolin (set to 1.00)
[8] = 10 µM peptide + 1 µM forskolin (set to 1.00)

| Substance | IP accumulation with GαΔ6qi4myr, NPR-3 [1, 5] | IP accumulation with GαΔ6qi4myr, NPR-3 [1, 6] | solubility of crude peptide at basic pH [4] | solubility of crude peptide [4] | further results |
| --- | --- | --- | --- | --- | --- |
| ASPSFIRF-NH2 [FLP-4-2, C. elegans FMRFamide-like peptide, C-terminally amidated, synthesized by SPPS] | 0.92 x-fold of basal | 1.05 x-fold of basal |  |  |  |
| APKPKFIRF-NH2 [FLP-5-1, C. elegans FMRFamide-like peptide, C-terminally amidated, synthesized by SPPS] | 0.88 x-fold of basal | 0.95 x-fold of basal |  |  | IP assay endog. Gαq + GαΔ6qi4myr, NPR-3 ([1]; 0.1 nM peptide (Table S5), mean of >=3 independent experiments): 0.88 x-fold of basal |
| GLGPRPLAF-NH2 [[R8A]FLP-21, R8A control peptide of FLP-21, penultimate arginine exchanged for an alanine] |  |  |  |  | Gi (Gs) [x-fold of forskolin], Y2R, mean ([2]; 0.1 µM peptide): 0.88 x-fold of forskolin; Gi (Gs) [x-fold of forskolin], Y2R, mean ([2]; 10 µM peptide): 0.81 x-fold of forskolin; Gi (Gs) [x-fold of forskolin], NPFF1R, mean ([3]; 0.1 µM peptide): 1.03 x-fold of forskolin; Gi (Gs) [x-fold of forskolin], NPFF1R, mean ([3]; 10 µM peptide): 0.66 x-fold of forskolin |
| RGPSGPLAF-NH2 [[R8A]FLP-15-2] |  |  |  |  | Gi (Gs) [x-fold of forskolin], Y2R, mean ([2]; 0.1 µM peptide): 0.86 x-fold of forskolin; Gi (Gs) [x-fold of forskolin], Y2R, mean ([2]; 10 µM peptide): 1.05 x-fold of forskolin; Gi (Gs) [x-fold of forskolin], NPFF1R, mean ([3]; 0.1 µM peptide): 0.91 x-fold of forskolin; Gi (Gs) [x-fold of forskolin], NPFF1R, mean ([3]; 10 µM peptide): 0.71 x-fold of forskolin |
| AGSDPNFLRF-NH2 [FLP-1-2, C. elegans FMRFamide-like peptide, C-terminally amidated, synthesized by SPPS] | 0.96 x-fold of basal | 0.93 x-fold of basal |  |  |  |
| RGPSGPLRF-NH2 [FLP-15-2] |  |  | improved solubility at basic pH | partly insoluble |  |
| NPENDTPFGTMRF-NH2 [FLP-3-4, C. elegans FMRFamide-like peptide, C-terminally amidated, synthesized by SPPS] | 0.97 x-fold of basal | 0.91 x-fold of basal | improved solubility at basic pH | partly insoluble |  |
| SEVPGVLRF-NH2 [FLP-18-5] |  |  | improved solubility at basic pH | partly insoluble |  |
| EASAFGDIIGELKGKGLGGRMRF-NH2 [FLP-27, NPY-like C. elegans FLP with C-terminal RxRF/Ya signature] |  |  |  | partly insoluble | cAMP assay (Gi/o), Y2R [2, 7]: 0.80 x-fold of forskolin; cAMP assay (Gi/o), Y2R [2, 8]: 0.17 x-fold of forskolin; cAMP assay (Gi/o), NPFF1R [3, 7]: 0.76 x-fold of forskolin; cAMP assay (Gi/o), NPFF1R [3, 8]: 0.26 x-fold of forskolin |
| GLGPRPLRF-NH2 [FLP-21] |  |  | improved solubility at basic pH | partly insoluble |  |
| APLEGFEDMSGFLRTIDGIQKPRF-NH2 [FLP-33, NPY-like C. elegans FLP with C-terminal RxRF/Ya signature] |  |  |  | partly insoluble | cAMP assay (Gi/o), Y2R [2, 7]: 0.89 x-fold of forskolin; cAMP assay (Gi/o), Y2R [2, 8]: 0.76 x-fold of forskolin; cAMP assay (Gi/o), NPFF1R [3, 7]: 0.81 x-fold of forskolin; cAMP assay (Gi/o), NPFF1R [3, 8]: 0.47 x-fold of forskolin |
